Data taken from paper PMC9596378, “Discovery and molecular basis of subtype-selective cyclophilin inhibitors” (Nature Chemical Biology, 2022).
Where “and” joins values, the source holds several entries; their conditions need not be identical. Equal entries are not always repeated. Where two headings read alike, the source gives them in different places.

What was measured:
Assay in all cases: Chymotrypsin coupled prolyl-isomerase assay;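 for NKTR prolyl-isomerase raw dose-response reading (Fig. 6c): Per-well observed rate constant from one-phase association fit in s−1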;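 for PPIL1 prolyl-isomerase raw dose-response reading (Fig. 6c): Per-well observed rate constant from one-phase association fit in s−1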
Type in all cases: biochemical
NKTR = biological target: T1, NKTR (Homo sapiens, UniProt P30414);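 for NKTR prolyl-isomerase raw dose-response reading (Fig. 6c): Per-well observed rate constant from one-phase association fit in s−1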
T1 construct: NKTR (UniProtKB Entry P30414: residues 7–179); host or cells: E. coli BL21(DE3)
T1 sequence (P30414 7-179): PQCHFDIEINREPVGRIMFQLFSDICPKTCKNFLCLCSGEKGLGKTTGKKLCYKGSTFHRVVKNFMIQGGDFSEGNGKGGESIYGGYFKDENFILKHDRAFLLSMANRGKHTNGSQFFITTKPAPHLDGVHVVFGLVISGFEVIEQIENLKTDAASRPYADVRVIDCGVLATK

PPIL1 = biological target: T2, PPIL1 (Homo sapiens, UniProt Q9Y3C6);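 for PPIL1 prolyl-isomerase raw dose-response reading (Fig. 6c): Per-well observed rate constant from one-phase association fit in s−1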
T2 construct: PPIL1 (UniProtKB Entry Q9Y3C6: residues 1–166); made in house; host or cells: E. coli BL21(DE3)
T2 sequence (Q9Y3C6 1-166): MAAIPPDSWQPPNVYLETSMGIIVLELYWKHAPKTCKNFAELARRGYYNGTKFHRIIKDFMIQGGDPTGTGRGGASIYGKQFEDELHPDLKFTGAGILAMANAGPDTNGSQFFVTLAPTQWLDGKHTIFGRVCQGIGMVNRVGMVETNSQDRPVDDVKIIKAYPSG

CypH = biological target: T3, CypH (Homo sapiens, UniProt O43447)
T3 construct: PPIH (UniProtKB Entry O43447: residues 1–177); His6 with TEV site (2BT vector leader) (N); made in house; host or cells: E. coli BL21(DE3)
T3 sequence (O43447 whole entry, the tested form may be a part): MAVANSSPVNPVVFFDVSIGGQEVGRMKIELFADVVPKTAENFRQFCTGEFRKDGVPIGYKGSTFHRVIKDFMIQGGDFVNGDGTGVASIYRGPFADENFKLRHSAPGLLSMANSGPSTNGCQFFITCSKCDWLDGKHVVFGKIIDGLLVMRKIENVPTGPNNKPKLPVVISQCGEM
Procedure, shortened: (§1)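 Chymotrypsin-coupled cis–trans isomerization of Suc-AAPF-AMC (5 µM) catalysed by 5 nM cyclophilin, run cold (2–3 °C) at pH 7.3 with 5 min compound preincubation.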

CypG = biological target: T4, CypG (Homo sapiens, UniProt Q13427); conditions: for IC50: read-out: IC50 CypG
T4 construct: PPIG (UniProtKB Entry Q13427: residues 1–179); His6 with thrombin site (pET28a LIC leader) (N); host or cells: E. coli BL21(DE3)
T4 sequence (Q13427 1-179): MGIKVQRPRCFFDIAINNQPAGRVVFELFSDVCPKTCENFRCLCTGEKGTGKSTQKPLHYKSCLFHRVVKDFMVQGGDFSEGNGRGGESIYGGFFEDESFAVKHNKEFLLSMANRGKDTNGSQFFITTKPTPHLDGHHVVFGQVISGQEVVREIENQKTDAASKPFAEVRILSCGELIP
Procedure, shortened: as §1

NC(=O)C1CCNC(=O)C=CC(=O)N2CCCC(Cc3ccccc3)(C2)C(=O)NC(Cc2ccc(-c3ccc(C=O)c(B(O)O)c3)cc2)C(=O)NCc2ccccc2CC(=O)N1 (stereo not shown) [Compound C3A]
NKTR prolyl-isomerase raw dose-response reading (Fig. 6c) (NKTR; Dose 0.00457247 µM): 0.03021 and 0.03304 and 0.03422
NKTR prolyl-isomerase raw dose-response reading (Fig. 6c) (NKTR; Dose 0.0137174 µM): 0.0282 and 0.04075 and 0.02833
NKTR prolyl-isomerase raw dose-response reading (Fig. 6c) (NKTR; Dose 0.0411523 µM): 0.03114 and 0.03658 and 0.02835
NKTR prolyl-isomerase raw dose-response reading (Fig. 6c) (NKTR; Dose 0.123457 µM): 0.03167 and 0.03382 and 0.0302
NKTR prolyl-isomerase raw dose-response reading (Fig. 6c) (NKTR; Dose 0.37037 µM): 0.03191 and 0.03367 and 0.02844
NKTR prolyl-isomerase raw dose-response reading (Fig. 6c) (NKTR; Dose 1.11111 µM): 0.03612 and 0.0297 and 0.03587
NKTR prolyl-isomerase raw dose-response reading (Fig. 6c) (NKTR; Dose 3.33333 µM): 0.03487 and 0.03208 and 0.0346
NKTR prolyl-isomerase raw dose-response reading (Fig. 6c) (NKTR; Dose 10 µM): 0.02874 and 0.02696 and 0.02891
IC50 (NKTR; Independent replicate 1, read-out: IC50 NKTR): > 10 µM
IC50 (NKTR; Independent replicate 2, read-out: IC50 NKTR): ~30 µM
IC50 (NKTR; Independent replicate 3, read-out: IC50 NKTR): ~30 µM
IC50 (NKTR; Independent replicate 4, read-out: IC50 NKTR): ~40 µM
IC50 (NKTR; wild-type NKTR, read-out: Wild-Type Cyclophilin Prolyl Isomerase Inhibition IC50 Values, NKTR): 33 µM
PPIL1 prolyl-isomerase raw dose-response reading (Fig. 6c) (PPIL1; Dose 0.00114312 µM): 0.05471 and 0.0599 and 0.05622
PPIL1 prolyl-isomerase raw dose-response reading (Fig. 6c) (PPIL1; Dose 0.00342936 µM): 0.05168 and 0.05762 and 0.07551
PPIL1 prolyl-isomerase raw dose-response reading (Fig. 6c) (PPIL1; Dose 0.00457247 µM): 0.05739 and 0.05515 and 0.06362 and 0.05346 and 0.05755 and 0.06002 and 0.05207 and 0.04334
PPIL1 prolyl-isomerase raw dose-response reading (Fig. 6c) (PPIL1; Dose 0.0102881 µM): 0.04812 and 0.0449 and 0.05106
PPIL1 prolyl-isomerase raw dose-response reading (Fig. 6c) (PPIL1; Dose 0.0308642 µM): 0.06685 and 0.05223 and 0.05525
PPIL1 prolyl-isomerase raw dose-response reading (Fig. 6c) (PPIL1; Dose 0.0925926 µM): 0.05203 and 0.04221 and 0.05411
PPIL1 prolyl-isomerase raw dose-response reading (Fig. 6c) (PPIL1; Dose 0.277778 µM): 0.04184 and 0.0372 and 0.04929
PPIL1 prolyl-isomerase raw dose-response reading (Fig. 6c) (PPIL1; Dose 0.833333 µM): 0.02447 and 0.02506 and 0.03512
PPIL1 prolyl-isomerase raw dose-response reading (Fig. 6c) (PPIL1; Dose 2.5 µM): 0.0232 and 0.01951 and 0.02784
IC50 (PPIL1; Independent replicate 1, read-out: IC50 PPIL1): 0.4 ± 0.2 µM
IC50 (PPIL1; Independent replicate 2, read-out: IC50 PPIL1): 0.5 ± 0.2 µM
IC50 (PPIL1; Independent replicate 3, read-out: IC50 PPIL1): 0.25 ± 0.06 µM
IC50 (PPIL1; Independent replicate 4, read-out: IC50 PPIL1): 0.36 ± 0.08 µM
IC50 (PPIL1; prolyl-isomerase inhibition, 5 nM cyclophilin, read-out: IC50 PPIL1): 0.4 ± 0.1 µM
IC50 (PPIL1; wild-type PPIL1, read-out: Wild-Type Cyclophilin Prolyl Isomerase Inhibition IC50 Values, PPIL1): 0.4 µM
CypH prolyl-isomerase raw dose-response reading (Fig. 6c) (CypH; Dose 0.00457247 µM): 0.05086 and 0.04496
CypH prolyl-isomerase raw dose-response reading (Fig. 6c) (CypH; Dose 0.0137174 µM): 0.05594 and 0.04525 and 0.04484
CypH prolyl-isomerase raw dose-response reading (Fig. 6c) (CypH; Dose 0.0411523 µM): 0.05731 and 0.04453 and 0.05359
CypH prolyl-isomerase raw dose-response reading (Fig. 6c) (CypH; Dose 0.123457 µM): 0.05145 and 0.04681 and 0.07329
CypH prolyl-isomerase raw dose-response reading (Fig. 6c) (CypH; Dose 0.37037 µM): 0.05882 and 0.04794 and 0.07376
CypH prolyl-isomerase raw dose-response reading (Fig. 6c) (CypH; Dose 1.11111 µM): 0.06718 and 0.05255 and 0.05895
CypH prolyl-isomerase raw dose-response reading (Fig. 6c) (CypH; Dose 3.33333 µM): 0.06287 and 0.05436 and 0.04825
CypH prolyl-isomerase raw dose-response reading (Fig. 6c) (CypH; Dose 10 µM): 0.04443 and 0.06084 and 0.04295
IC50 (CypH; Independent replicate 1, read-out: IC50 CypH): > 10 µM
IC50 (CypH; Independent replicate 2, read-out: IC50 CypH): > 50 µM
IC50 (CypH; Independent replicate 3, read-out: IC50 CypH): ~40 µM
IC50 (CypH; Independent replicate 4, read-out: IC50 CypH): > 50 µM
IC50 (CypH; prolyl-isomerase inhibition, 5 nM cyclophilin, read-out: IC50 CypH): > 50 µM
IC50 (CypH; wild-type CypH, read-out: Wild-Type Cyclophilin Prolyl Isomerase Inhibition IC50 Values, CypH): > 50 µM
CypG prolyl-isomerase raw dose-response reading (Fig. 6c) (CypG; Dose 0.00457247 µM): 0.04675 and 0.05256 and 0.06278
CypG prolyl-isomerase raw dose-response reading (Fig. 6c) (CypG; Dose 0.0137174 µM): 0.05042 and 0.05542 and 0.04906
CypG prolyl-isomerase raw dose-response reading (Fig. 6c) (CypG; Dose 0.0411523 µM): 0.05063 and 0.04839 and 0.04139
CypG prolyl-isomerase raw dose-response reading (Fig. 6c) (CypG; Dose 0.123457 µM): 0.04982 and 0.05395 and 0.05565
CypG prolyl-isomerase raw dose-response reading (Fig. 6c) (CypG; Dose 0.37037 µM): 0.04159 and 0.05179 and 0.03978
CypG prolyl-isomerase raw dose-response reading (Fig. 6c) (CypG; Dose 1.11111 µM): 0.05731 and 0.0555 and 0.05308
CypG prolyl-isomerase raw dose-response reading (Fig. 6c) (CypG; Dose 3.33333 µM): 0.04975 and 0.046 and 0.05109
CypG prolyl-isomerase raw dose-response reading (Fig. 6c) (CypG; Dose 10 µM): 0.05239 and 0.04081 and 0.048
IC50 (CypG; Independent replicate 1): > 10 µM
IC50 (CypG; Independent replicate 2): ~40 µM
